In ChEMBL document CHEMBL3600384, “Highly potent artemisinin-derived dimers and trimers: Synthesis and evaluation of their antimalarial, antileukemia and antiviral activities” (Bioorg Med Chem, 2015):
Calls of active or inactive are those of the source. The rule behind the calls is not given here.

What was measured:
[1] = system: HFF; experiment: Cytotoxicity against HFF up to 10 uM by fluorescence microscopic analysis; assay type: cell-based; settings: human
[2] = Cytotoxicity against human CEM/ADR5000 cells assessed as cell viability after 72 hrs by resazurin assay; assay type: functional, cell-based; settings: ADR5000, 72 h
[3] = Potency index, ratio of doxorubicin IC50 to compound IC50 for human CEM/ADR5000 cells; assay type: functional
[4] = system: CCRF-CEM; experiment: Cytotoxicity against human CCRF-CEM cells assessed as cell viability after 72 hrs by resazurin assay; assay type: functional, cell-based
[5] = system: Human betaherpesvirus 5; experiment: Antiviral activity against Human cytomegalovirus AD169 expressing GFP infected in HFF assessed as inhibition of viral replication after 7 days; assay type: functional, organism-based
[6] = system: Plasmodium falciparum; experiment: Antimalarial activity against Plasmodium falciparum 3D7 infected in human erythrocytes assessed as parasite growth inhibition after 72 hrs by SYBR Green I assay; assay type: functional, organism-based; settings: 3D7, 72 h
[7] = system: CCRF-CEM; experiment: Resistance index, ratio of IC50 for human CEM/ADR5000 cells to IC50 for human CCRF-CEM cells; assay type: functional
[8] = system: HFF; experiment: Cytotoxicity against HFF up to 10 uM by light microscopic analysis; assay type: cell-based; settings: human
[9] = system: ADR5000; experiment: Cytotoxicity against human CEM/ADR5000 cells assessed as cell viability at 400 uM after 72 hrs by resazurin assay; assay type: functional, cell-based
[10] = system: Plasmodium falciparum; experiment: Antimalarial activity against Plasmodium falciparum NF54 infected in human erythrocytes after 48 hrs by [3H]hypoxanthine incorporation assay; assay type: functional, organism-based
[11] = Stability of the compound up to 56 degC; assay type: physicochemical
[12] = Stability of the compound in freezing/thawing condition; assay type: physicochemical
[13] = Human betaherpesvirus 5, AD169, 168 h, read-out: IC50

Row | Structure (SMILES) | IC50 [2] [nM] | IC50 [4] [nM] | IC50 [6] [nM] | Ratio IC50 [7] | IC50 [5, 13] [nM] | also measured
1 | C[C@H]1[C@@H](OCC(C[C@H]2O[C@@H]3O[C@@]4(C)CC[C@H]5[C@H](C)CC[C@@H]([C@H]2C)[C@@]35OO4)C[C@H]2O[C@@H]3O[C@@]4(C)CC[C@H]5[C@H](C)CC[C@@H]([C@H]2C)[C@@]35OO4)O[C@@H]2O[C@@]3(C)CC[C@H]4[C@H](C)CC[C@@H]1[C@@]24OO3 | 490 | 2 | 12.8 | 245 | – | Activity [1]: Non-toxic; Ratio IC50 [3]: 3; IC50 [5]: ND(toxic); Activity [8]: Non-toxic
2 | Nc1nc2c(ncn2COC(CO)CO)c(=O)[nH]1 [GANCICLOVIR] | – | – | – | – | 2600 | –
3 | C[C@H]1[C@@H](O)O[C@@H]2O[C@@]3(C)CC[C@H]4[C@H](C)CC[C@@H]1[C@@]24OO3 [ARTENIMOL] | 270 | 90 | 2.5 | 3 | > 10000 | –
4 | C[C@H]1[C@H](OC(=O)CCC(=O)NCC(O)CNC(=O)CCC(=O)O[C@@H]2O[C@@H]3O[C@@]4(C)CC[C@H]5[C@H](C)CC[C@@H]([C@H]2C)[C@@]35OO4)O[C@@H]2O[C@@]3(C)CC[C@H]4[C@H](C)CC[C@@H]1[C@@]24OO3 (stereo not given in full) | – | – | – | – | 2070 | –
5 | C[C@H]1[C@H](OC(=O)CCC(=O)O)O[C@@H]2O[C@@]3(C)CC[C@H]4[C@H](C)CC[C@@H]1[C@@]24OO3 [ARTESUNATE] | 190 | 70 | 9 | 2.71 | 3800 | –
6 | C[C@@H]1CC[C@H]2[C@@H](C)C(=O)O[C@@H]3O[C@@]4(C)CC[C@@H]1[C@]32OO4 [ARTEMISININ] | – | – | – | 0.73 | > 10000 | –
7 | COc1cccc2c1C(=O)c1c(O)c3c(c(O)c1C2=O)C[C@@](O)(C(=O)CO)C[C@@H]3O[C@H]1C[C@H](N)[C@H](O)[C@H](C)O1 [DOXORUBICIN] | 1610 | 3 | – | 536.67 | – | –
8 | C[C@H]1[C@@H](CCCO)O[C@@H]2O[C@@]3(C)CC[C@H]4[C@H](C)CC[C@@H]1[C@@]24OO3 | – | 174000 | 11.6 | – | – | Activity [9]: inactive
9 | C[C@H]1[C@H](OC(=O)CCC(=O)O[C@@H]2O[C@@H]3O[C@@]4(C)CC[C@H]5[C@H](C)CC[C@@H]([C@H]2C)[C@@]35OO4)O[C@@H]2O[C@@]3(C)CC[C@H]4[C@H](C)CC[C@@H]1[C@@]24OO3 | 2790 | 2750 | 2.6 | 1.01 | 1040 | –
10 | C[C@H]1[C@@H](CCCOC(=O)C[C@H]2O[C@@H]3O[C@@]4(C)CC[C@H]5[C@H](C)CC[C@@H]([C@H]2C)[C@@]35OO4)O[C@@H]2O[C@@]3(C)CC[C@H]4[C@H](C)CC[C@@H]1[C@@]24OO3 | 200 | 90 | 2.6 | 2.22 | 310 | Ratio IC50 [3]: 3
11 | C[C@H]1[C@@H](CC(CO)C[C@H]2O[C@@H]3O[C@@]4(C)CC[C@H]5[C@H](C)CC[C@@H]([C@H]2C)[C@@]35OO4)O[C@@H]2O[C@@]3(C)CC[C@H]4[C@H](C)CC[C@@H]1[C@@]24OO3 (stereo not given in full) | 50 | 20 | 1.1 | 2.5 | – | IC50 [10]: 0.87 nM
12 | C[C@H]1[C@H](OC(=O)CCC(=O)NCCCCCCCCNC(=O)CCC(=O)O[C@@H]2O[C@@H]3O[C@@]4(C)CC[C@H]5[C@H](C)CC[C@@H]([C@H]2C)[C@@]35OO4)O[C@@H]2O[C@@]3(C)CC[C@H]4[C@H](C)CC[C@@H]1[C@@]24OO3 | – | – | – | – | > 10000 | –
13 | C[C@H]1[C@H](OC(=O)CCC(=O)OCC(C[C@H]2O[C@@H]3O[C@@]4(C)CC[C@H]5[C@H](C)CC[C@@H]([C@H]2C)[C@@]35OO4)C[C@H]2O[C@@H]3O[C@@]4(C)CC[C@H]5[C@H](C)CC[C@@H]([C@H]2C)[C@@]35OO4)O[C@@H]2O[C@@]3(C)CC[C@H]4[C@H](C)CC[C@@H]1[C@@]24OO3 | 200 | 2 | 12.8 | 100 | 40 | Stability [11]: Stable; Activity [1]: Non-toxic; Ratio IC50 [3]: 3; Activity [8]: Non-toxic; Stability [12]: Stable
